According to US20050197350A1, “Novel quinoline, tetrahydroquinazoline, and pyrimidine derivatives and methods of treatment related to the use thereof” (TAISHO PHARMACEUTICAL CO., LTD., priority 2003, published 2005):

test system: MCH receptors; assay: MCH receptor activity class (method not given); conditions: class by percent of control at 10^-7 M or IC50

| SMILES | class |
| --- | --- |
| CN(C)c1ccnc(N[C@H]2CC[C@@H](CNCc3ccc(CO)o3)CC2)n1 [compound 1276] | 3 (Class 3 The value of percent of control at 10^−7 M was more than 60% or the value of IC50 was more than 200 nM.) |
| CC(C)Oc1ccc(CNC[C@H]2CC[C@@H](Nc3nccc(N(C)C)n3)CC2)cc1 [compound 1277] | 2 (Class 2: The value of percent of control at 10^−7 M was from 40% to 60% or the value of IC′50 was from 50 nM to 200 nM.) |
| CCc1ccc(CNC[C@H]2CC[C@@H](Nc3nccc(N(C)C)n3)CC2)s1 [compound 1278] | 3 (Class 3 The value of percent of control at 10^−7 M was more than 60% or the value of IC50 was more than 200 nM.) |
| CN(C)c1ccnc(N[C@H]2CC[C@@H](CNCC=C(c3ccccc3)c3ccccc3)CC2)n1 [compound 1279] | 1 (Class 1: The value of percent of control at 10^−7 M was less than 40% or the value of IC50 was less than 50 nM.) |
| CCOc1cc(CNC[C@H]2CC[C@@H](Nc3nccc(N(C)C)n3)CC2)ccc1O [compound 1280] | 2 (Class 2: The value of percent of control at 10^−7 M was from 40% to 60% or the value of IC′50 was from 50 nM to 200 nM.) |
| CN(C)c1ccnc(N[C@H]2CC[C@@H](CNCc3ccc(N(C)C)c4ccccc34)CC2)n1 [compound 1281] | 2 (Class 2: The value of percent of control at 10^−7 M was from 40% to 60% or the value of IC′50 was from 50 nM to 200 nM.) |
| COc1cc(OC)c(CNC[C@H]2CC[C@@H](Nc3nccc(N(C)C)n3)CC2)c(OC)c1 [compound 1282] | 1 (Class 1: The value of percent of control at 10^−7 M was less than 40% or the value of IC50 was less than 50 nM.) |
| CN(C)c1ccnc(N[C@H]2CC[C@@H](CNCc3cc(Cl)cc(Br)c3O)CC2)n1 [compound 1283] | 3 (Class 3 The value of percent of control at 10^−7 M was more than 60% or the value of IC50 was more than 200 nM.) |
| CN(C)c1ccnc(N[C@H]2CC[C@@H](CNCc3cccc(C#N)c3)CC2)n1 [compound 1284] | 3 (Class 3 The value of percent of control at 10^−7 M was more than 60% or the value of IC50 was more than 200 nM.) |
| COc1ccc(F)c(CNC[C@H]2CC[C@@H](Nc3nccc(N(C)C)n3)CC2)c1 [compound 1285] | 3 (Class 3 The value of percent of control at 10^−7 M was more than 60% or the value of IC50 was more than 200 nM.) |
| CN(C)c1ccnc(N[C@H]2CC[C@@H](CNCc3ccccc3SC(F)(F)F)CC2)n1 [compound 1286] | 3 (Class 3 The value of percent of control at 10^−7 M was more than 60% or the value of IC50 was more than 200 nM.) |
| CCOc1ccc(Br)cc1CNC[C@H]1CC[C@@H](Nc2nccc(N(C)C)n2)CC1 [compound 1287] | 1 (Class 1: The value of percent of control at 10^−7 M was less than 40% or the value of IC50 was less than 50 nM.) |
| COc1ccc(CNC[C@H]2CC[C@@H](Nc3nccc(N(C)C)n3)CC2)c(OC)c1C [compound 1288] | 1 (Class 1: The value of percent of control at 10^−7 M was less than 40% or the value of IC50 was less than 50 nM.) |
| CN(C)c1ccnc(N[C@H]2CC[C@@H](CNCc3ccccc3OC(F)(F)F)CC2)n1 [compound 1289] | 3 (Class 3 The value of percent of control at 10^−7 M was more than 60% or the value of IC50 was more than 200 nM.) |
| CCOc1ccc(OCC)c(CNC[C@H]2CC[C@@H](Nc3nccc(N(C)C)n3)CC2)c1 [compound 1290] | 1 (Class 1: The value of percent of control at 10^−7 M was less than 40% or the value of IC50 was less than 50 nM.) |
| CCOc1ccc(CNC[C@H]2CC[C@@H](Nc3nccc(N(C)C)n3)CC2)c(OCC)c1 [compound 1291] | 2 (Class 2: The value of percent of control at 10^−7 M was from 40% to 60% or the value of IC′50 was from 50 nM to 200 nM.) |
| COc1c(Br)cc(Br)cc1CNC[C@H]1CC[C@@H](Nc2nccc(N(C)C)n2)CC1 [compound 1292] | 1 (Class 1: The value of percent of control at 10^−7 M was less than 40% or the value of IC50 was less than 50 nM.) |
| CN(C)c1ccnc(N[C@H]2CC[C@@H](CNCc3ccccc3OC(F)F)CC2)n1 [compound 1293] | 3 (Class 3 The value of percent of control at 10^−7 M was more than 60% or the value of IC50 was more than 200 nM.) |
| COc1ccc(F)cc1CNC[C@H]1CC[C@@H](Nc2nccc(N(C)C)n2)CC1 [compound 1294] | 3 (Class 3 The value of percent of control at 10^−7 M was more than 60% or the value of IC50 was more than 200 nM.) |
| CCOc1cc(OCC)c(OCC)cc1CNC[C@H]1CC[C@@H](Nc2nccc(N(C)C)n2)CC1 [compound 1295] | 1 (Class 1: The value of percent of control at 10^−7 M was less than 40% or the value of IC50 was less than 50 nM.) |
| COc1cc(OC)c(OC)cc1CNC[C@H]1CC[C@@H](Nc2nccc(N(C)C)n2)CC1 [compound 1296] | 2 (Class 2: The value of percent of control at 10^−7 M was from 40% to 60% or the value of IC′50 was from 50 nM to 200 nM.) |
| COc1cccc(CNC[C@H]2CC[C@@H](Nc3nccc(N(C)C)n3)CC2)c1OC [compound 1297] | 3 (Class 3 The value of percent of control at 10^−7 M was more than 60% or the value of IC50 was more than 200 nM.) |
| C=CCOc1ccccc1CNC[C@H]1CC[C@@H](Nc2nccc(N(C)C)n2)CC1 [compound 1298] | 1 (Class 1: The value of percent of control at 10^−7 M was less than 40% or the value of IC50 was less than 50 nM.) |

| SMILES | class |
| --- | --- |
| CN(C)c1ccnc(N[C@H]2CC[C@@H](CNCc3csc4ccccc34)CC2)n1 [compound 1299] | 3 (Class 3 The value of percent of control at 10^−7 M was more than 60% or the value of IC50 was more than 200 nM.) |
| CN(C)c1ccnc(N[C@H]2CC[C@@H](CNCc3cn(C)c4ccccc34)CC2)n1 [compound 1300] | 2 (Class 2: The value of percent of control at 10^−7 M was from 40% to 60% or the value of IC′50 was from 50 nM to 200 nM.) |
| Cc1ccc(CNC[C@H]2CC[C@@H](Nc3nccc(N(C)C)n3)CC2)s1 [compound 1301] | 3 (Class 3 The value of percent of control at 10^−7 M was more than 60% or the value of IC50 was more than 200 nM.) |
| Cc1cc(C)c(CNC[C@H]2CC[C@@H](Nc3nccc(N(C)C)n3)CC2)c(C)c1 [compound 1302] | 3 (Class 3 The value of percent of control at 10^−7 M was more than 60% or the value of IC50 was more than 200 nM.) |
| CN(C)c1ccnc(N[C@H]2CC[C@@H](CNCc3ccc4c(c3)OCO4)CC2)n1 [compound 1303] | 3 (Class 3 The value of percent of control at 10^−7 M was more than 60% or the value of IC50 was more than 200 nM.) |
| CN(C)c1ccnc(N[C@H]2CC[C@@H](CNCc3ccsc3)CC2)n1 [compound 1304] | 3 (Class 3 The value of percent of control at 10^−7 M was more than 60% or the value of IC50 was more than 200 nM.) |
| Cc1cccc(CNC[C@H]2CC[C@@H](Nc3nccc(N(C)C)n3)CC2)c1 [compound 1305] | 3 (Class 3 The value of percent of control at 10^−7 M was more than 60% or the value of IC50 was more than 200 nM.) |
| Cc1ccccc1CNC[C@H]1CC[C@@H](Nc2nccc(N(C)C)n2)CC1 [compound 1306] | 3 (Class 3 The value of percent of control at 10^−7 M was more than 60% or the value of IC50 was more than 200 nM.) |
| Cc1ccc(CNC[C@H]2CC[C@@H](Nc3nccc(N(C)C)n3)CC2)cc1 [compound 1307] | 3 (Class 3 The value of percent of control at 10^−7 M was more than 60% or the value of IC50 was more than 200 nM.) |
| CN(C)c1ccnc(N[C@H]2CC[C@@H](CNCc3cc(Cl)cc(Cl)c3)CC2)n1 [compound 1308] | 3 (Class 3 The value of percent of control at 10^−7 M was more than 60% or the value of IC50 was more than 200 nM.) |
| COc1cc(CNC[C@H]2CC[C@@H](Nc3nccc(N(C)C)n3)CC2)cc2c1OCO2 [compound 1309] | 1 (Class 1: The value of percent of control at 10^−7 M was less than 40% or the value of IC50 was less than 50 nM.) |
| COc1cc(CNC[C@H]2CC[C@@H](Nc3nccc(N(C)C)n3)CC2)cc(Br)c1OC [compound 1310] | 1 (Class 1: The value of percent of control at 10^−7 M was less than 40% or the value of IC50 was less than 50 nM.) |
| COc1ccc(CNC[C@H]2CC[C@@H](Nc3nccc(N(C)C)n3)CC2)cc1C [compound 1311] | 2 (Class 2: The value of percent of control at 10^−7 M was from 40% to 60% or the value of IC′50 was from 50 nM to 200 nM.) |
| COc1cc(Br)c(CNC[C@H]2CC[C@@H](Nc3nccc(N(C)C)n3)CC2)cc1OC [compound 1312] | 2 (Class 2: The value of percent of control at 10^−7 M was from 40% to 60% or the value of IC′50 was from 50 nM to 200 nM.) |
| Cc1oc(-c2ccccc2)cc1CNC[C@H]1CC[C@@H](Nc2nccc(N(C)C)n2)CC1 [compound 1313] | 3 (Class 3 The value of percent of control at 10^−7 M was more than 60% or the value of IC50 was more than 200 nM.) |
| COc1ccc(CNC[C@H]2CC[C@@H](Nc3nccc(N(C)C)n3)CC2)cc1OC [compound 1314] | 2 (Class 2: The value of percent of control at 10^−7 M was from 40% to 60% or the value of IC′50 was from 50 nM to 200 nM.) |
| Cc1cc(CNC[C@H]2CC[C@@H](Nc3nccc(N(C)C)n3)CC2)ccc1O [compound 1315] | 3 (Class 3 The value of percent of control at 10^−7 M was more than 60% or the value of IC50 was more than 200 nM.) |
| COc1cc(C)c(CNC[C@H]2CC[C@@H](Nc3nccc(N(C)C)n3)CC2)cc1C [compound 1316] | 2 (Class 2: The value of percent of control at 10^−7 M was from 40% to 60% or the value of IC′50 was from 50 nM to 200 nM.) |
| COc1cccc(CNC[C@H]2CC[C@@H](Nc3nccc(N(C)C)n3)CC2)c1O [compound 1317] | 3 (Class 3 The value of percent of control at 10^−7 M was more than 60% or the value of IC50 was more than 200 nM.) |
| CN(C)c1ccnc(N[C@H]2CC[C@@H](CNCc3cc(C(F)(F)F)cc(Cl)c3F)CC2)n1 [compound 1318] | 3 (Class 3 The value of percent of control at 10^−7 M was more than 60% or the value of IC50 was more than 200 nM.) |
| CN(C)c1ccnc(N[C@H]2CC[C@@H](CNCc3cc(F)cc(C(F)(F)F)c3)CC2)n1 [compound 1319] | 3 (Class 3 The value of percent of control at 10^−7 M was more than 60% or the value of IC50 was more than 200 nM.) |
| COc1cc(CNC[C@H]2CC[C@@H](Nc3nccc(N(C)C)n3)CC2)cc(F)c1O [compound 1320] | 3 (Class 3 The value of percent of control at 10^−7 M was more than 60% or the value of IC50 was more than 200 nM.) |
